Laboratory results taken from ChEMBL document CHEMBL5543167, “Design, Synthesis, and Biological Evaluation of Novel EGFR PROTACs Targeting C797S Mutation” (J Med Chem, 2024).
pIC50: −log10 of the molar value. Calls of active or inactive are those of the source. No cut-off for these calls is given here.

Tests used:
[1] = Half-life in male Sprague-Dawley rat at 5 mg/kg, iv measured after 24 hrs by LC-MS/MS analysis; assay type: ADME, organism-based; details: in vivo
[2] = molecular target: Epidermal growth factor receptor (Homo sapiens) (UniProt P00533); assay: Inhibition of EGFR signaling in human H1975-TM cells harboring EGFR L858R/T790M/C797S mutant assessed as reduction in ERK activation by Western blot analysis; assay type: cell-based; details: dose 1.2-300 nM
Epidermal growth factor receptor (Homo sapiens), sequence (P00533 whole entry): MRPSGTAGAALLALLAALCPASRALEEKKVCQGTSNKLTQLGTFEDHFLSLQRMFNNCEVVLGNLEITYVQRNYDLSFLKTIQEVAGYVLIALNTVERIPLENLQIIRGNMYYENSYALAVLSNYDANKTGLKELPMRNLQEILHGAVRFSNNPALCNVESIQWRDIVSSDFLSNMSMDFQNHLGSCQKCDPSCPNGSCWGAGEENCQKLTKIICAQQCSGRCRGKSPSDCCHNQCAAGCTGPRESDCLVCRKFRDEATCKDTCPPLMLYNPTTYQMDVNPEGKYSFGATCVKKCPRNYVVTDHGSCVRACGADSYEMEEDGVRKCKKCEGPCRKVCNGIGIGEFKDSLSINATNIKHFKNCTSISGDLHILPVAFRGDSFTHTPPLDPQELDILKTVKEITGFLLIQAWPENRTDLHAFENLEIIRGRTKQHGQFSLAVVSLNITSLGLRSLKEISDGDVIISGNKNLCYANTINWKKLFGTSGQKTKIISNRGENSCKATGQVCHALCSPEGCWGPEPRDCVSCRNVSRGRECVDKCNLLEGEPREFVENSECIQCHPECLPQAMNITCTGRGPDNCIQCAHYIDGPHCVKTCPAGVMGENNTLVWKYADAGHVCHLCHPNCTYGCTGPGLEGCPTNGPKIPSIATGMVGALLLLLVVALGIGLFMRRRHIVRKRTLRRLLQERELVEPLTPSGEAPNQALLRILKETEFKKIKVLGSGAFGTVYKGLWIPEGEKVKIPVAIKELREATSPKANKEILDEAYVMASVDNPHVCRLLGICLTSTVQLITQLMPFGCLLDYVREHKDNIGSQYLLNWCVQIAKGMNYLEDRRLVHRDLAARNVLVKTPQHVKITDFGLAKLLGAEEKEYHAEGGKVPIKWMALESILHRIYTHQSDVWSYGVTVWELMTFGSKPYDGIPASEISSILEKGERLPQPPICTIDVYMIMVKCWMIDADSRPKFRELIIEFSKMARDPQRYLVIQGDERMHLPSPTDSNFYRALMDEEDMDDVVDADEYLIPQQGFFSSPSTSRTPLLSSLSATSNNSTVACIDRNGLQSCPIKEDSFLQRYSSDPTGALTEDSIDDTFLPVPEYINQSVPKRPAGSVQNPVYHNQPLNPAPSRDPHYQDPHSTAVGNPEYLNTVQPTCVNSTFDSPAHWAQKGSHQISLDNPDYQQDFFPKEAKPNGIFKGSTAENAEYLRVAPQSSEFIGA

[3] = molecular target: Aurora kinase B (Homo sapiens) (UniProt Q96GD4); assay: Induction of AURKB degradation in human H1975-TM cells at 50 nM incubated for 24 hrs; assay type: cell-based
Aurora kinase B (Homo sapiens), sequence (Q96GD4 whole entry): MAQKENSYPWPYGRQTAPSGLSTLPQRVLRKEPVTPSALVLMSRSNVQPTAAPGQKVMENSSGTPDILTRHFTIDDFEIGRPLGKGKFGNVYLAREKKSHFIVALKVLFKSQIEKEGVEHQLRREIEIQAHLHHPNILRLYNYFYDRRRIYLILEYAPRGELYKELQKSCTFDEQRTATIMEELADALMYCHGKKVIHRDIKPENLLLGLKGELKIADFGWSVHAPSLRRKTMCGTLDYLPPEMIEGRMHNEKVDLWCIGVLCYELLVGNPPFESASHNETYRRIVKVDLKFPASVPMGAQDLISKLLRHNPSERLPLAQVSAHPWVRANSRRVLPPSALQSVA

[4] = Toxicity in BALB/c nude mouse xenografted with human H1975-TM cells assessed as heart lesions at 25 to 100 mg/kg, po administered once daily for 31 days by Hematoxylin and eosin staining based analysis; assay type: organism-based; details: in vivo, 744 h, dose 25-100 mg/kg, time 31 day
[5] = test system: Protein cereblon/Epidermal growth factor receptor (Homo sapiens), P00533+Q96SW2 [L858R,T790M,C797S]; assay: PROTAC activity at CRBN/EGFR L858R/T790M/C797S mutant in human H1975-TM cells assessed as induction of EGFR degradation by measuring remaining activity at 100 nM preincubated for 24 hrs followed by compound washout and measured after 48 hrs by Western blot analysis (reference value: 100%); assay type: cell-based
[6] = test system: Mus musculus; assay: In vivo PROTAC activity at CRBN/EGFR L858R/T790M/C797S mutant in BALB/c nude mouse xenografted with human […] cells assessed as decrease in EGFR protein level in tumor at 25 to 100 mg/kg, po administered once daily for 31 days by Western blot analysis; assay type: functional, organism-based; details: dose 25-100 mg/kg, time 31.0 day
[7] = test system: Mus musculus; assay: In vivo inhibition of EGFR signaling in BALB/c nude mouse xenografted with human […] cells assessed as reduction in AKT activation at 25 to 100 mg/kg, po administered once daily for 31 days by Western blot analysis; assay type: functional, organism-based; details: dose 25-100 mg/kg, time 31.0 day
[8] = test system: Protein cereblon/Epidermal growth factor receptor (Homo sapiens), P00533+Q96SW2 [L858R,T790M,C797S]; assay: PROTAC activity at CRBN/EGFR L858R/T790M/C797S mutant in human H1975-TM cells assessed as induction of EGFR degradation by measuring remaining activity at 100 nM incubated for 3 hrs by Western blot analysis (reference value: 100%); assay type: cell-based
[9] = Tmax in male Sprague-Dawley rat at 5 mg/kg, iv measured after 24 hrs by LC-MS/MS analysis; assay type: ADME, organism-based; details: in vivo
[10] = test system: H1975-TM; assay: Induction of cell cycle arrest in human H1975-TM cells harboring EGFR L858R/T790M/C797S mutant assessed as accumulation of cells at G0/G1 phase at 5 to 60 nM incubated for 24 hrs by RNase/PI staining based analysis; assay type: functional; details: dose 5-60 nM
[11] = MRT (0 to infinity) in male Sprague-Dawley rat at 5 mg/kg, iv measured after 24 hrs by LC-MS/MS analysis; assay type: ADME, organism-based; details: in vivo
[12] = molecular target: Protein cereblon/Epidermal growth factor receptor (Homo sapiens, UniProt P00533+Q96SW2); assay: (§1) PROTAC activity at CRBN/EGFR exon 19 deletion mutant in human PC-9 cells assessed as induction of EGFR degradation incubated for 24 hrs by Western blot analysis; assay type: cell-based
[13] = test system: Protein cereblon/Epidermal growth factor receptor (Homo sapiens), P00533+Q96SW2 [UNDEFINED MUTATION]; assay: as §1; assay type: cell-based
[14] = molecular target: Protein cereblon/Epidermal growth factor receptor (Homo sapiens, UniProt P00533+Q96SW2, T790M/C797S/L858R); assay: PROTAC activity at CRBN/EGFR L858R/T790M/C797S mutant in human H1975-TM cells assessed as induction of EGFR degradation incubated for 24 hrs by Western blot analysis; assay type: cell-based
Protein cereblon/Epidermal growth factor receptor (Homo sapiens, UniProt P00533+Q96SW2, T790M/C797S/L858R), sequence (P00533 25-1210 T790M/C797S/L858R limits assumed, stated change not applied): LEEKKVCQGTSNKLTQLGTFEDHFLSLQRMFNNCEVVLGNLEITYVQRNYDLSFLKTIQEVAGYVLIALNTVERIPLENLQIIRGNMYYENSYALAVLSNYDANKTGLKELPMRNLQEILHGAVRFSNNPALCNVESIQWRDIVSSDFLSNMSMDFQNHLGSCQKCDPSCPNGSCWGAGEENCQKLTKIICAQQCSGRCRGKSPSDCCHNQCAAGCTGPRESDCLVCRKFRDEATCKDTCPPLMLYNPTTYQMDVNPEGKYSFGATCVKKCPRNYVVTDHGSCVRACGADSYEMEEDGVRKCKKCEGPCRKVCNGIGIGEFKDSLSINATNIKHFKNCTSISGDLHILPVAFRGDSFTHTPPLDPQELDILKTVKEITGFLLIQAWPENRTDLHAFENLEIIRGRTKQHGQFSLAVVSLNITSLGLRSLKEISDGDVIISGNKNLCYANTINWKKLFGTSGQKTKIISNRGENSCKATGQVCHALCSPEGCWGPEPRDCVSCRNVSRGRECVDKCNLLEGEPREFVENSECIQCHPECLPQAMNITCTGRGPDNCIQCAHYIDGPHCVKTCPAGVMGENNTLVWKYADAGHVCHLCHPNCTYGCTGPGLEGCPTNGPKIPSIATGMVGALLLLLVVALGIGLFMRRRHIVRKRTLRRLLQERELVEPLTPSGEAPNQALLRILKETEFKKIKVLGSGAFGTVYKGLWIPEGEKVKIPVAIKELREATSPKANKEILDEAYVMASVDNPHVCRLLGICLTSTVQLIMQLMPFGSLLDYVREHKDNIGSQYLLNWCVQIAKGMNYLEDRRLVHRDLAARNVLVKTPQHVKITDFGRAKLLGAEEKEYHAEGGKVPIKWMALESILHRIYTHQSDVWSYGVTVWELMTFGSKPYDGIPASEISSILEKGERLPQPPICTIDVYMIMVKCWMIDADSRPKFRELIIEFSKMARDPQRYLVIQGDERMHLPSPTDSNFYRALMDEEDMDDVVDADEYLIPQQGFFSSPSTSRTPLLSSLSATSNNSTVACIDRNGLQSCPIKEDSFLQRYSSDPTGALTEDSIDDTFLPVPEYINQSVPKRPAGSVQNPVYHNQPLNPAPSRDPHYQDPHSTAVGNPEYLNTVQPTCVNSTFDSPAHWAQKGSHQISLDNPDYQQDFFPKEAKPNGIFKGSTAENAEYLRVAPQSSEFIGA
Protein cereblon/Epidermal growth factor receptor (Homo sapiens, UniProt P00533+Q96SW2, T790M/C797S/L858R), sequence (Q96SW2 whole entry, stated change not applied): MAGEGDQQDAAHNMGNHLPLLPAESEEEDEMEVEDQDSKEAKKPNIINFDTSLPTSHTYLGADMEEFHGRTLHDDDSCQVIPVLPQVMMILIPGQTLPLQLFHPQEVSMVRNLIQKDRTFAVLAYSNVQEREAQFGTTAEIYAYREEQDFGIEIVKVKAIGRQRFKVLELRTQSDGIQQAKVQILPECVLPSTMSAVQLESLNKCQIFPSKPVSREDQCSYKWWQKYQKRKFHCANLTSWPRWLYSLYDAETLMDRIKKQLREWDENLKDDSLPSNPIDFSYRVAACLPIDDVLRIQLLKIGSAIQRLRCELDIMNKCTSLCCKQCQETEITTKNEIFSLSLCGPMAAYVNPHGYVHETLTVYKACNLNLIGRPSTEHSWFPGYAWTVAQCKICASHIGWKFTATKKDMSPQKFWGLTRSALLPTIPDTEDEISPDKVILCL

[15] = test system: Protein cereblon/Epidermal growth factor receptor (Homo sapiens), P00533+Q96SW2 [L858R,T790M,C797S]; assay: PROTAC activity at CRBN/EGFR L858R/T790M/C797S mutant in human H1975-TM cells assessed as induction of EGFR degradation by measuring remaining activity at 3.7 nM incubated for 24 hrs by Western blot analysis (reference value: 100%); assay type: cell-based
[16] = Toxicity in BALB/c nude mouse xenografted with human H1975-TM cells assessed as effect on body weight at 25 to 100 mg/kg, po administered once daily for 31 days; assay type: organism-based; details: in vivo, 744 h, dose 25-100 mg/kg, time 31 day
[17] = test system: Protein cereblon/Epidermal growth factor receptor (Homo sapiens), P00533+Q96SW2 [L858R,T790M,C797S]; assay: PROTAC activity at CRBN/EGFR L858R/T790M/C797S mutant in human H1975-TM cells assessed as induction of EGFR degradation by measuring remaining activity at 1.2 nM incubated for 24 hrs by Western blot analysis (reference value: 100%); assay type: cell-based
[18] = Antitumor activity against human H1975-TM cells xenografted in BALB/c nude mouse assessed as tumor growth inhibition at 25 mg/kg, po administered once daily for 31 days relative to control; assay type: functional; details: 744 h, time 31 day, read-out: TGI
[19] = test system: NCI-H1975; assay: Antiproliferative activity against human NCI-H1975 cells harboring EGFR L858R/T790M mutant assessed as inhibition of cell proliferation incubated for 72 hrs by CCK8 assay; assay type: functional, cell-based; details: NCI-H1975, 72 h
[20] = molecular target: Epidermal growth factor receptor (Homo sapiens) (UniProt P00533); assay: Inhibition of EGFR signaling in human H1975-TM cells harboring EGFR L858R/T790M/C797S mutant assessed as reduction in EGFR phosphorylation by Western blot analysis; assay type: cell-based; details: dose 1.2-300 nM
[21] = test system: H1975-TM; assay: Antitumor activity against human H1975-TM cells xenografted in BALB/c nude mouse assessed as decrease in tumor cell proliferation at 25 to 100 mg/kg, po administered once daily for 31 days by Ki67 staining based light microscopic analysis; assay type: functional, organism-based; details: dose 25-100 mg/kg, time 31.0 day
[22] = Toxicity in BALB/c nude mouse xenografted with human H1975-TM cells assessed as kidney lesions at 25 to 100 mg/kg, po administered once daily for 31 days by Hematoxylin and eosin staining based analysis; assay type: organism-based; details: in vivo, 744 h, dose 25-100 mg/kg, time 31 day
[23] = molecular target: Epidermal growth factor receptor (Homo sapiens) (UniProt P00533); assay: Inhibition of EGFR signaling in human H1975-TM cells harboring EGFR L858R/T790M/C797S mutant assessed as reduction in AKT activation by Western blot analysis; assay type: cell-based; details: dose 1.2-300 nM
[24] = molecular target: Cyclin-dependent kinase 12 (Homo sapiens) (UniProt Q9NYV4); assay: Induction of CDK12 degradation in human H1975-TM cells at 50 nM incubated for 24 hrs; assay type: cell-based
Cyclin-dependent kinase 12 (Homo sapiens), sequence (Q9NYV4 whole entry, looked up): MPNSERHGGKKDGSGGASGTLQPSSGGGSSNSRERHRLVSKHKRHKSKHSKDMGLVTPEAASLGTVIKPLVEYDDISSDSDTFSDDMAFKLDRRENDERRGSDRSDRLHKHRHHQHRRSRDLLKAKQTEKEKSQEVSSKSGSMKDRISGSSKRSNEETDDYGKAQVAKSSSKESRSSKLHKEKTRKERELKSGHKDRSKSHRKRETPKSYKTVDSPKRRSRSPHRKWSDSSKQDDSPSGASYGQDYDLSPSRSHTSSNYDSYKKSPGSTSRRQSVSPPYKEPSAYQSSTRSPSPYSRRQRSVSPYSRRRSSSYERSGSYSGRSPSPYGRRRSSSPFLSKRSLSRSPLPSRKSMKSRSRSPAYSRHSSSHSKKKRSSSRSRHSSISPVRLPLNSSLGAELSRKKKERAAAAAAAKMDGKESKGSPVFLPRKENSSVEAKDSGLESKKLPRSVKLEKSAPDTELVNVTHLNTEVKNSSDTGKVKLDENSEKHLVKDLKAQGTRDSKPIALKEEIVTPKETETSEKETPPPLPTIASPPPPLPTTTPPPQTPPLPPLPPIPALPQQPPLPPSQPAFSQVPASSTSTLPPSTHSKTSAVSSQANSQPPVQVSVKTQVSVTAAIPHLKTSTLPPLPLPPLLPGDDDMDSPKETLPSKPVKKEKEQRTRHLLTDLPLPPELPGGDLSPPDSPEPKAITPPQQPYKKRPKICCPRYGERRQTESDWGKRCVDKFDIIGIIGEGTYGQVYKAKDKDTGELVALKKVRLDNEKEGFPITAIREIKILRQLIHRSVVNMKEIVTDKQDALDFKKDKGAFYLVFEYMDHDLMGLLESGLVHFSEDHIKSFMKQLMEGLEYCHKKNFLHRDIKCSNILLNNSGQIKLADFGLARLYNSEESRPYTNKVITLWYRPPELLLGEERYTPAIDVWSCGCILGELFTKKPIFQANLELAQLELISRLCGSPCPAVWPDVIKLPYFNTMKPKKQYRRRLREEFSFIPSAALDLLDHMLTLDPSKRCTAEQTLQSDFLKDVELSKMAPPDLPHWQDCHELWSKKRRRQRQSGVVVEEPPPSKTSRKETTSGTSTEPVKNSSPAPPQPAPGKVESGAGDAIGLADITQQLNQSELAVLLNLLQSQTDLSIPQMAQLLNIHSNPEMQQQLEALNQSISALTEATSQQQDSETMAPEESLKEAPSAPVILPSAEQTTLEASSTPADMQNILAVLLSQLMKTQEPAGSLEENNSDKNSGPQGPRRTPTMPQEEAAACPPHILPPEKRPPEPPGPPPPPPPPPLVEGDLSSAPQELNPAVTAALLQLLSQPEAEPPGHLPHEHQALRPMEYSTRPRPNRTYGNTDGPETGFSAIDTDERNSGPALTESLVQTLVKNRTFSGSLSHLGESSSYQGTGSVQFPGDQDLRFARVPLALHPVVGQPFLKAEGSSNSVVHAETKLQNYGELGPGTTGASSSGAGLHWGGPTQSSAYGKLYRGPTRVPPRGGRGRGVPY

[25] = test system: Protein cereblon/Epidermal growth factor receptor (Homo sapiens), P00533+Q96SW2 [L858R,T790M,C797S]; assay: PROTAC activity at CRBN/EGFR L858R/T790M/C797S mutant in human H1975-TM cells assessed as induction of EGFR degradation by measuring remaining activity at 11 nM incubated for 24 hrs by Western blot analysis (reference value: 100%); assay type: cell-based
[26] = Toxicity in BALB/c nude mouse xenografted with human H1975-TM cells assessed as liver lesions at 25 to 100 mg/kg, po administered once daily for 31 days by Hematoxylin and eosin staining based analysis; assay type: organism-based; details: in vivo, 744 h, dose 25-100 mg/kg, time 31 day
[27] = test system: Protein cereblon/Epidermal growth factor receptor (Homo sapiens), P00533+Q96SW2 [L858R,T790M,C797S]; assay: PROTAC activity at CRBN/EGFR L858R/T790M/C797S mutant in human H1975-TM cells assessed as induction of EGFR degradation by measuring remaining activity at 100 nM preincubated for 24 hrs followed by compound washout and measured after 12 hrs by Western blot analysis (reference value: 100%); assay type: cell-based

## CCS(=O)(=O)n1cc(-c2nc(Nc3ccc(N4CCN(CCCCCCC(=O)Nc5cccc6c5CN(C5CCC(=O)NC5=O)C6=O)CC4)cc3)ncc2C(F)(F)F)c2ccccc21 (configuration not stated)
[1]
  half-life: 38 h
[2]
  inhibition: Dose-Dependent Effect
[3]
  Activity: Active
[4]
  Activity: Non-Toxic
[5]
  Activity: 66.6%
[6]
  Activity: Active
[7]
  inhibition: Active
[8]
  Activity: 75.7%
[9]
  Tmax: 4.8 min
[10]
  Activity: Active
[11]
  MRT inf: 18.4 h
[12]
  DC50: 0.0754 µM
[13]
  Activity: Dose-Dependent Effect
[14]
  DC50: 0.0102 µM
[15]
  Activity: 46.6%
[16]
  Activity: Non-Toxic
[17]
  Activity: 107%
[18]
  inhibition in vivo at 25 mg/kg: 48.1%
[19]
  pIC50: 7.34
[20]
  inhibition: Dose-Dependent Effect
[21]
  Activity: Active
[22]
  Activity: Non-Toxic
[23]
  inhibition: Dose-Dependent Effect
[24]
  Activity: Active
[25]
  Activity: 33.5%
[26]
  Activity: Non-Toxic
[27]
  Activity: 49.7%
